Test system: Palmitoyl CoA oxidation in rat heart mitochondria
Experiment: Palmitoyl CoA oxidation assay (mitochondrial assay, Example 16)
Format: biochemical
Settings: 16 microM 1-C14 palmitoyl CoA, 15 min at 30° C., read-out: IC value, Palmitoyl CoA oxidation
Experimental: Rat heart mitochondria are isolated by the method of Nedergard and Cannon (Methods in Enzymol. 55, 3, 1979).
Palmitoyl CoA oxidation—The Palmityl CoA oxidation is carried out in a total volume of 100 micro liters containing the following agents: 110 mM KCl, 33 mM Tris buffer at pH 8, 2 mM KPi, 2 mM MgCl2, 0.1 mM EDTA, 14.7 microM defatted BSA, 0.5 mM malic acid, 13 mM carnitine, 1 mM ADP, 52 micrograms of mitochondrial protein, and 16 microM 1-C14 palmitoyl CoA (Sp. Activity 60 mCi/mmole; 20 microCi/ml, using 5 microliters per assay). The compounds of this invention are added in a DMSO solution at the following concentrations: 100 micro molar, 30 micro molar, and 3 micro molar. In each assay, a DMSO control is used. After 15 min at 30° C., the enzymatic reaction is centrifuged (20,000 g for 1 min), and 70 microliters of the supernatant is added to an activated reverse phase silicic acid column (approximately 0.5 ml of silicic acid). The column is eluted with 2 ml of water, and 0.5 ml of the eluent is used for scintillation counting to determine the amount of C^14 trapped as C^14 bicarbonate ion.

- IC50: 2.6 µM
Substance: {(3S)-4-[(2R)-2-hydroxy-3-(2-methylbenzothiazol-5-yloxy)propyl]-3-methylpiperazinyl}-N-(9-ethylcarbazol-3-yl)carboxamide

— patent publication US7208496B2, “Substituted heterocyclic compounds” (CV Therapeutics, Inc., priority 2003, dated 2007)
